The values below come from PubChem BioAssay (NCI).

Each structure is given as a SMILES string.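 These data come from cells grown in 96-well plates and exposed to compound for 48 hours at five concentrations. GI50 marks 50% less growth. TGI marks complete inhibition of growth.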

Among the test systems are KM12 colon; COLO 205 colon; ACHN renal; HT29 colon; SK-OV-3 ovarian; RPMI-8226 leukemia; MALME-3M melanoma; SF-539 CNS; MDA-MB-435; NCI-H226 lung.
What all share (test): DTP human tumour cell line panel, 48 h

Regarding `O=C(NCCNCCO)c1ccc2c(c1)oc1cc3ccccc3c(=O)n12`, the GI50 is 9.32 µM in the assay with KM12 colon; 18.9 µM in the assay on COLO 205 colon; 19 µM with ACHN renal; 29.4 µM with HT29 colon; over 50 µM in the assay on SK-OV-3 ovarian; 33.8 µM with RPMI-8226 leukemia. Besides, the figures for the GI50 in the assay with MALME-3M melanoma, in the assay with SF-539 CNS and with MDA-MB-435 were 19.7 µM, 16.2 µM and over 50 µM, respectively. The concentration for total growth inhibition (TGI) in the assay with KM12 colon was over 50 µM; in the assay with COLO 205 colon it was 47.3 µM; in the assay on ACHN renal, over 50 µM; with HT29 colon, over 50 µM; in the assay on SK-OV-3 ovarian, over 50 µM; with RPMI-8226 leukemia, over 50 µM. Besides, the TGI in the assay with MALME-3M melanoma was over 50 µM; in the assay with SF-539 CNS, 33.2 µM; in the assay on MDA-MB-435, over 50 µM.
Turning to `COc1cc(Nc2cnc3ccc(C(F)(F)F)cc3n2)cc(OC)c1OC`, the TGI with COLO 205 colon, in the assay on ACHN renal, with HT29 colon, in the assay on RPMI-8226 leukemia, in the assay on MALME-3M melanoma and in the assay with NCI-H226 lung was over 100 µM each time. The compound also displayed a TGI with SF-539 CNS of over 100 µM.
As for `COC(=O)/C=C(/C(=O)OC)C1(C)c2cc(C(=O)OC)c(C(=O)OC)c(N)c2C(=N)N1c1ccccc1` (stereo unspecified), the TGI with KM12 colon is 32.9 µM; in the assay on COLO 205 colon, 29.7 µM; with ACHN renal, 48.7 µM; with HT29 colon, 31.7 µM; in the assay on SK-OV-3 ovarian, over 100 µM; in the assay with RPMI-8226 leukemia, 57.6 µM. Also, the values for the TGI in the assay on MALME-3M melanoma, in the assay with NCI-H226 lung and in the assay on SF-539 CNS were 32.7 µM, 89.9 µM and 48.9 µM, respectively.
Take `Cc1ccc(S(=O)(=O)OCC/C(=C\[Si](C)(C)C)c2ccccc2)cc1`: the TGI in the assay with KM12 colon, with COLO 205 colon, in the assay on ACHN renal, in the assay with HT29 colon, with SK-OV-3 ovarian and with RPMI-8226 leukemia was over 100 µM in each case. Also, the concentration for total growth inhibition (TGI) with MALME-3M melanoma, with NCI-H226 lung and with SF-539 CNS was over 100 µM each time.
In the case of `FC(F)(F)Oc1cccc(-c2cc(NCCCCCCNc3cc(-c4cccc(OC(F)(F)F)c4)nc4ccc(N5CCCC5)cc34)c3cc(N4CCCC4)ccc3n2)c1`, the GI50 was 1.74 µM in the assay with KM12 colon; 2.15 µM with HT29 colon; 1.78 µM in the assay on SK-OV-3 ovarian; 1.68 µM in the assay with MALME-3M melanoma; 1.86 µM in the assay with NCI-H226 lung; 1.85 µM with SF-539 CNS. The GI50 in the assay with MDA-MB-435 was 1.82 µM. Further, the TGI is 3.27 µM in the assay with KM12 colon; 4.35 µM with HT29 colon; 3.36 µM with SK-OV-3 ovarian; 3.1 µM in the assay with MALME-3M melanoma; 3.69 µM in the assay on NCI-H226 lung; 3.33 µM with SF-539 CNS. In the assay on MDA-MB-435, this compound returned a TGI of 3.27 µM.
Turning to `O=C1NC(=O)c2c1n(Cc1ccccc1)c(=O)n2Cc1ccccc1`, the TGI with KM12 colon, in the assay on COLO 205 colon, with ACHN renal, in the assay on HT29 colon, in the assay on SK-OV-3 ovarian and with RPMI-8226 leukemia was over 100 µM throughout. The TGI in the assay with MALME-3M melanoma, with NCI-H226 lung and in the assay on SF-539 CNS was over 100 µM each time.
In the case of `O=C1[C@@H]2C(c3c(Cl)cccc3Cl)=NO[C@@H]2C(=O)N1c1ccc(Cc2ccc(N3C(=O)[C@H]4C(c5c(Cl)cccc5Cl)=NO[C@H]4C3=O)cc2)cc1`, the TGI in the assay with KM12 colon, with COLO 205 colon, in the assay on ACHN renal, in the assay with HT29 colon, in the assay with SK-OV-3 ovarian and in the assay on RPMI-8226 leukemia was over 100 µM throughout. The TGI with MALME-3M melanoma, with NCI-H226 lung and in the assay on SF-539 CNS was over 100 µM each time.
For the compound `N#CC(C(=O)C(=O)Nc1c(Cl)cccc1Cl)c1ccccc1` (stereo unspecified), the GI50 in the assay on KM12 colon, in the assay with COLO 205 colon, in the assay on ACHN renal, in the assay on HT29 colon, with SK-OV-3 ovarian and in the assay on RPMI-8226 leukemia was over 100 µM in each case. For the same compound, the GI50 in the assay on MALME-3M melanoma, in the assay with NCI-H226 lung and in the assay with SF-539 CNS was over 100 µM each time. Moreover, the TGI in the assay on KM12 colon, in the assay with COLO 205 colon, in the assay on ACHN renal, in the assay on HT29 colon, with SK-OV-3 ovarian and in the assay on RPMI-8226 leukemia was over 100 µM throughout. Also, the TGI with MALME-3M melanoma, in the assay on NCI-H226 lung and with SF-539 CNS was over 100 µM each time.
Regarding `N#C/C(=C\c1cc(OCc2ccccc2)c(OCc2ccccc2)cn1)C(N)=O`, the TGI in the assay on KM12 colon, with COLO 205 colon, with ACHN renal, in the assay on HT29 colon, in the assay with SK-OV-3 ovarian and in the assay on RPMI-8226 leukemia was over 100 µM each time. Further, the TGI in the assay with MALME-3M melanoma, in the assay on NCI-H226 lung and in the assay on SF-539 CNS was over 100 µM each time.
Take `NNC(=O)C(=O)N/N=C1/CCCC1C(=O)CCC(=O)Nc1ccc(Cl)cc1` (stereo unspecified): the TGI with KM12 colon, in the assay with COLO 205 colon, in the assay on ACHN renal, with HT29 colon, in the assay on SK-OV-3 ovarian and in the assay with RPMI-8226 leukemia was over 100 µM in each case. In addition, the TGI with MALME-3M melanoma, in the assay on NCI-H226 lung and with SF-539 CNS was over 100 µM in each case.
As to `CCCCCCCCCCCC[N+]1(CCCCCCCCCCCC)CCCC(C)C1` (stereo unspecified), the GI50 in the assay on ACHN renal is 0.984 µM; in the assay with HT29 colon it was 0.186 µM; in the assay with MDA-MB-435, 0.277 µM. The TGI with ACHN renal was found to be 2.27 µM; in the assay with HT29 colon, 1.09 µM; with MDA-MB-435, 1.09 µM.
Take `Cc1ccc2c(c1)CN1c3ccc(C)cc3CN2C1c1ccccc1O`: the TGI in the assay on KM12 colon, in the assay on COLO 205 colon, with ACHN renal, with HT29 colon, in the assay with SK-OV-3 ovarian and in the assay on RPMI-8226 leukemia was over 100 µM in each case. Moreover, the TGI in the assay on MALME-3M melanoma, with NCI-H226 lung and in the assay with SF-539 CNS was over 100 µM each time.

The GI50 is the concentration that inhibits growth by half. As usually defined, the TGI is the concentration at which net growth stops.
